Test results: patent US20050260181A1, “Compositions and methods for tissue repair” (Immunopath Profile, Inc., priority 2004, published 2005)
Like-named read-outs stand apart in the source and are kept apart here.

What was measured:
[1] = rats orally; cited from earlier work
[2] = rats and mice; cited from earlier work
[3] = system: T47D breast cancer tissue cells; assay: MTS breast cancer mitochondrial activity assay; type: cell-based; settings: for MTS suppression ratio (mean OD treated / mean OD control), 24 h: culture time 24 h; for MTS suppression ratio (mean OD treated / mean OD control), 24 h / MTS suppression ratio (mean OD treated / mean OD control), 48 h: 1.0 = no effect; for MTS suppression ratio (mean OD treated / mean OD control), 48 h: culture time 48 h
Description: In addition to and equal to the effects of high HLB surfactants for comparative testing. These comparative studies were performed and results are reported in the above table. Metabolism was comparatively measured with controls and other extracts as to the reduction of mitochondrial activity, (MTS). This compound is a substrate for the mitochondrial enzymes—and is reduced to a blue formazan product.
In the first experiments—The extracted therapeutic test agents were derived from specified tissue. Water extracts of the crushed tissue, were also prepared. For the later experiments, specific varieties of extracts were prepared and examined: Cells were obtained from American Type Culture Collection (ATCC, Washington, D.C.) and were cultured as recommended by ATCC. Experiments were performed in 96 well microtiter plates. Each well contained 1.0×10^4 cells suspended in a total volume of […]. Test wells contained the designated amount of extract in cell culture medium. Control wells contained the same amount of extract solvent in medium. Plates were incubated in an atmosphere of 5% C02 for 24 or 48 hours with extract or solvent. At this time, […] were added to each well and incubation was continued for an additional 4 hours after which time the optical density (OD) at […] of each well was recorded. In each experiment, each sample was assayed in triplicate and the mean optical density (OD) for the three wells containing the same culture was calculated.
Data are presented as suppression ratios. The suppression ratio defined here as the mean optical density (OD) for the wells containing extract divided by the mean optical density (OD) for the control wells.
The purpose of the work was to determine which therapeutic agent extracts (further separated by chromatography) explored through this methodology for anti-cancer activity. The data presented here represents semi-quantitative anti-cancer screening tests. Extracts with ratios in the range 0.51-0.74 were considered moderately active and therefore appropriate for considered use along with preventive anti-cancer treatment and active anti-cancer treatment. In co-use with anti-cancer treatment and radiation treatment, may lessen the dose and the side effects of these current therapeutic agents. Extracts with metabolism suppression ratios less than or equal to 0.5 represented a suppression of metabolism of at least 50% or greater than that of the controls and were considered definitely active potential anti-cancer agents, as was the case of High HLB Tween 80 with ethylene maturation apoptosis promoting factor with a 76% suppression of mitochondrial metabolism of cancer cells.

[4] = Circulation, blood viscosity and sedimentation rate with intermediate HLB lipid; type: in vivo; settings: HLB 8 to 11
Excerpt: The amount of surface-active polar lipid to include in the composition can be determined by viscosity measurements. Tissue concentration can be measured by viscosity (as used in blood serum which normally is 1.12 to 1.22 centipoise with upper limit of three). In the case of the intermediate HLB 8 to 11 (as exemplified by PC phosphatidylcholine when so used) circulation is improved 25% however there is no change in viscosity or the red blood cell sedimentation rate at these HLB ranges because of the fact that biophysical functional effects is upon the cell membrane. With its use the red cell membrane becomes more plastic, and is made more pliable thereby enhancing circulation and oxygenation.
Component No. 2 contains self-vesiculating essence of HLB 8 to 11 or 12, ideally 10 to 11, cell membrane forming and repairing liquid crystal phosphatidylcholine (PC), thereby increasing pliability of the red cell, blood vessel and endothelial membrane enhancing circulatory function by 25%. Component No. 2 optionally contains high HLB surfactants with packing parameters that not only enhance biologic function and efficiency of protein enzymes and their substrate but also promotes protein refolding and thereby normalizing biologic function. This helps to normalize the biologic function of disease promoting protein structures of Alzheimer's disease, Parkinson's disease, and Mad Cow disease. […]

Row | Compound | LD 50 [1] [mg per kilogram] | LD 50 [2] [ml per kilogram] | MTS suppression ratio (mean OD treated / mean OD control), 24 h ([3]; T47D cells) | MTS suppression ratio (mean OD treated / mean OD control), 48 h ([3]; T47D cells) | improvement of circulation / circulatory function [4] [%] | suppression of mitochondrial metabolism of cancer cells [3] [%] | % normalization of Breast cancer cells ([3]; T47D cells) [%]
1 | CCCCCCCCCCCCOS(=O)(=O)[O-].[Na+] [sodium lauryl sulfate] | 1288 | – | – | – | – | – | –
2 | polyglycerol polyricinolate [PGPR] | – | 7.5 | – | – | – | – | –
3 | phosphatidylcholine [PC] | – | – | 0.92 | 0.98 | 25 | – | –
4 | polyoxyethylene Sorbitan Monooleate [Tween 80] | – | 7.5 | 0.48 | 0.24 | – | 76 | 76
